This note sets out measurements from ChEMBL document CHEMBL5465560, “Selectivity Literature for EUbOPEN Chemogenomic Library” (2024).

Test [1] in a line: Selectivity interaction (KinomeScan (DiscoverX)) EUB0001049a CDK2H. Particulars: at 1 µM.
Test [2] deals with T1, Gamma-aminobutyric acid receptor subunit alpha-1 (Homo sapiens) (UniProt P14867).
T1 sequence (whole entry): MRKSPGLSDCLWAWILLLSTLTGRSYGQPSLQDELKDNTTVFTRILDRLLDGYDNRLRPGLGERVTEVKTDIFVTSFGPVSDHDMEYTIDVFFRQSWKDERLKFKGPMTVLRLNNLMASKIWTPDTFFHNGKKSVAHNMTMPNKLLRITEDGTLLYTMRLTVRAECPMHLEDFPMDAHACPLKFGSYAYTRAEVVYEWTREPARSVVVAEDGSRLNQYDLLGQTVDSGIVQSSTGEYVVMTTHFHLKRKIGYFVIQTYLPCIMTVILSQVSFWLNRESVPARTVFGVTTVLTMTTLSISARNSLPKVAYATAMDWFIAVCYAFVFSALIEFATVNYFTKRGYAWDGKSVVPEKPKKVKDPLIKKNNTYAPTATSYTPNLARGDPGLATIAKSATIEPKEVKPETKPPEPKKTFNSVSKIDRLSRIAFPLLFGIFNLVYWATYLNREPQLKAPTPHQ
Put plainly: Selectivity interaction (Eurofins CEREP Diversity Profile (receptors and ion channels)) EUB0000279b GABRA1. Particulars: at 10 µM.

In test [3] the target is Serine/threonine-protein kinase MRCK alpha (Homo sapiens) (UniProt Q5VT25). The experiment in a line: Selectivity interaction (KinomeScan (DiscoverX)) EUB0000045b CDC42BPA.
Test [4] addresses BMP-2-inducible protein kinase (Homo sapiens) (UniProt Q9NSY1). Put plainly: Selectivity interaction (KinomeScan (DiscoverX)) EUB0000045b BMP2K.
The target of test [5] is 5'-AMP-activated protein kinase catalytic subunit alpha-2 (Homo sapiens) (UniProt P54646). Put plainly: Selectivity interaction (ActivX KiNativ screen (kinase selectivity in THP-1 cell lysates)) EUB0000639a PRKAA2. Type of test: subcellular. Particulars: lysate.
Test [6] addresses T2, Mitogen-activated protein kinase kinase kinase 15 (Homo sapiens) (UniProt Q6ZN16).
T2 sequence (whole entry): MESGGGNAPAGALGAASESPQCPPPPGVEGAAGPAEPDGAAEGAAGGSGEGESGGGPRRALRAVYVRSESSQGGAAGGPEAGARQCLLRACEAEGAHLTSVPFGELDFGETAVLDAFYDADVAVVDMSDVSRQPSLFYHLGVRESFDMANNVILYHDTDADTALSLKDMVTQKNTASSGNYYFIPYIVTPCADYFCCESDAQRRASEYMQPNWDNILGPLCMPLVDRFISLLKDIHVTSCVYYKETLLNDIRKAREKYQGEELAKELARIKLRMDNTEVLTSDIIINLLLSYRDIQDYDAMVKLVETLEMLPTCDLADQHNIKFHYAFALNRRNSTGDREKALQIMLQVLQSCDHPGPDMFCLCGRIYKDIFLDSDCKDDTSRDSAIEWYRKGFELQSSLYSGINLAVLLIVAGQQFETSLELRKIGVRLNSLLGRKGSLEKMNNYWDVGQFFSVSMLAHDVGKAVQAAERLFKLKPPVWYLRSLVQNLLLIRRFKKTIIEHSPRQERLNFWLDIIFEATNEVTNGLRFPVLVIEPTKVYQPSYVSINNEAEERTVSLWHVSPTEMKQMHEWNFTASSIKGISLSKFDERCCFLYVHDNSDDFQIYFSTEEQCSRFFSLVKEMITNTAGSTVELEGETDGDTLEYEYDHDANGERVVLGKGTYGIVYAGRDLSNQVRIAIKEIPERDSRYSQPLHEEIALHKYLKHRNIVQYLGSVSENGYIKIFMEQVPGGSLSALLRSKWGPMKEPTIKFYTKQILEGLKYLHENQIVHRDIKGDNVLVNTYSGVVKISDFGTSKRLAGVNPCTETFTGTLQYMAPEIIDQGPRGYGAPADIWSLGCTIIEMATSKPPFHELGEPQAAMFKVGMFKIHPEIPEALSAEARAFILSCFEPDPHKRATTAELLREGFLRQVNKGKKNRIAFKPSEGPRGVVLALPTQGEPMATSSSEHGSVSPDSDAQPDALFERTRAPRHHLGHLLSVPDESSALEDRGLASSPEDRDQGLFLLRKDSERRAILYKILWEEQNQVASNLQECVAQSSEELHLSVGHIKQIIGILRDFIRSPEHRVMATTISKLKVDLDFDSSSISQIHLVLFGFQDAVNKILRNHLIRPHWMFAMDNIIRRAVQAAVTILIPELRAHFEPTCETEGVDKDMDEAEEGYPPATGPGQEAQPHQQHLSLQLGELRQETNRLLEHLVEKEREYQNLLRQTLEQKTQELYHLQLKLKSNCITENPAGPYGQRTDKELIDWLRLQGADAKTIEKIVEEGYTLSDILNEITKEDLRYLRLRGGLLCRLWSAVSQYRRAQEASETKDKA
Put plainly: Selectivity interaction (KinomeScan (DiscoverX)) EUB0000229b MAP3K15. Particulars: at 10 µM.

For test [7], the target named is Mitogen-activated protein kinase 3 (Homo sapiens, UniProt P27361). Put plainly: Selectivity interaction (KinomeScan (DiscoverX)) EUB0001619a MAPK3. The following applies: at 1 µM.
Test [8] has as its target Vascular endothelial growth factor receptor 2 (Homo sapiens, UniProt P35968). Put plainly: Selectivity interaction (KinomeScan (DiscoverX)) EUB0001619a KDR. The following applies: at 1 µM.
The target in test [9] is Mitogen-activated protein kinase 8 (Homo sapiens, UniProt P45983). Put plainly: Selectivity interaction (KinomeScan (DiscoverX)) EUB0001619a MAPK8. Particulars: at 1 µM.
Test [10] concerns the target T3, Interleukin-1 receptor-associated kinase 3 (Homo sapiens) (UniProt Q9Y616).
T3 sequence (whole entry): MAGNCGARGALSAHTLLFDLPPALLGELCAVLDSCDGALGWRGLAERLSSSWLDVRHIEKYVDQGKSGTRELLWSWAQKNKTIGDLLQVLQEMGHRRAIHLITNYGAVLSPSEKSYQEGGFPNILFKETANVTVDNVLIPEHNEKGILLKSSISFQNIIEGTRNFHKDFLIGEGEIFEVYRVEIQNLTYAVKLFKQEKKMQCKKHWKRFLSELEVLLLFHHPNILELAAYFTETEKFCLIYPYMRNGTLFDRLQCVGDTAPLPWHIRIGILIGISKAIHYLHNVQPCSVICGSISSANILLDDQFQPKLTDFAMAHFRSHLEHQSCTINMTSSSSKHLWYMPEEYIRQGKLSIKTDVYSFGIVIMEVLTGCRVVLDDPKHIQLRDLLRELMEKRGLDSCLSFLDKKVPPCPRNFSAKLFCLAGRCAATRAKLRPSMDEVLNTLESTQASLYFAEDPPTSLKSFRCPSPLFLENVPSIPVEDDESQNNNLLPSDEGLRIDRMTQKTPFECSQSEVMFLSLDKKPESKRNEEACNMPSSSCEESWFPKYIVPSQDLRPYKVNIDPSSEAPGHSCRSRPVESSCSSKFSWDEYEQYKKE
Put plainly: Selectivity interaction (KinomeScan (DiscoverX)) EUB0000618a IRAK3. Particulars: at 10 µM.

Sequence of 5'-AMP-activated protein kinase catalytic subunit alpha-2 (Homo sapiens) (P54646 whole entry, looked up): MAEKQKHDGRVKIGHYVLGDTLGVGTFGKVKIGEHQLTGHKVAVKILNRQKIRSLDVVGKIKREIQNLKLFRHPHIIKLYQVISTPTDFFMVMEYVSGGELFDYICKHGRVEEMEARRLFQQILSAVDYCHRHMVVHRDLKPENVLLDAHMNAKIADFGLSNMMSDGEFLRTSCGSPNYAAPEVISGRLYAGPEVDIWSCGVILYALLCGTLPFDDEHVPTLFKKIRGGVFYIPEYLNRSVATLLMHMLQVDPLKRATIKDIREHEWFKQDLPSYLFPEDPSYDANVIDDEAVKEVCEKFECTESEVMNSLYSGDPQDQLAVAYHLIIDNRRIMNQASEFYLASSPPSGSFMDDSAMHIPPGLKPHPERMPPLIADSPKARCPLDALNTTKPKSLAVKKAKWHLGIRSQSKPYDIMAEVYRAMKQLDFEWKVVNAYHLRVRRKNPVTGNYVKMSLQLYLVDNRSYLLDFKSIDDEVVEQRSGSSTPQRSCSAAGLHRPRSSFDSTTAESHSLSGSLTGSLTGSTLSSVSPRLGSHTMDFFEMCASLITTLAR
Sequence of Serine/threonine-protein kinase MRCK alpha (Homo sapiens) (Q5VT25 whole entry): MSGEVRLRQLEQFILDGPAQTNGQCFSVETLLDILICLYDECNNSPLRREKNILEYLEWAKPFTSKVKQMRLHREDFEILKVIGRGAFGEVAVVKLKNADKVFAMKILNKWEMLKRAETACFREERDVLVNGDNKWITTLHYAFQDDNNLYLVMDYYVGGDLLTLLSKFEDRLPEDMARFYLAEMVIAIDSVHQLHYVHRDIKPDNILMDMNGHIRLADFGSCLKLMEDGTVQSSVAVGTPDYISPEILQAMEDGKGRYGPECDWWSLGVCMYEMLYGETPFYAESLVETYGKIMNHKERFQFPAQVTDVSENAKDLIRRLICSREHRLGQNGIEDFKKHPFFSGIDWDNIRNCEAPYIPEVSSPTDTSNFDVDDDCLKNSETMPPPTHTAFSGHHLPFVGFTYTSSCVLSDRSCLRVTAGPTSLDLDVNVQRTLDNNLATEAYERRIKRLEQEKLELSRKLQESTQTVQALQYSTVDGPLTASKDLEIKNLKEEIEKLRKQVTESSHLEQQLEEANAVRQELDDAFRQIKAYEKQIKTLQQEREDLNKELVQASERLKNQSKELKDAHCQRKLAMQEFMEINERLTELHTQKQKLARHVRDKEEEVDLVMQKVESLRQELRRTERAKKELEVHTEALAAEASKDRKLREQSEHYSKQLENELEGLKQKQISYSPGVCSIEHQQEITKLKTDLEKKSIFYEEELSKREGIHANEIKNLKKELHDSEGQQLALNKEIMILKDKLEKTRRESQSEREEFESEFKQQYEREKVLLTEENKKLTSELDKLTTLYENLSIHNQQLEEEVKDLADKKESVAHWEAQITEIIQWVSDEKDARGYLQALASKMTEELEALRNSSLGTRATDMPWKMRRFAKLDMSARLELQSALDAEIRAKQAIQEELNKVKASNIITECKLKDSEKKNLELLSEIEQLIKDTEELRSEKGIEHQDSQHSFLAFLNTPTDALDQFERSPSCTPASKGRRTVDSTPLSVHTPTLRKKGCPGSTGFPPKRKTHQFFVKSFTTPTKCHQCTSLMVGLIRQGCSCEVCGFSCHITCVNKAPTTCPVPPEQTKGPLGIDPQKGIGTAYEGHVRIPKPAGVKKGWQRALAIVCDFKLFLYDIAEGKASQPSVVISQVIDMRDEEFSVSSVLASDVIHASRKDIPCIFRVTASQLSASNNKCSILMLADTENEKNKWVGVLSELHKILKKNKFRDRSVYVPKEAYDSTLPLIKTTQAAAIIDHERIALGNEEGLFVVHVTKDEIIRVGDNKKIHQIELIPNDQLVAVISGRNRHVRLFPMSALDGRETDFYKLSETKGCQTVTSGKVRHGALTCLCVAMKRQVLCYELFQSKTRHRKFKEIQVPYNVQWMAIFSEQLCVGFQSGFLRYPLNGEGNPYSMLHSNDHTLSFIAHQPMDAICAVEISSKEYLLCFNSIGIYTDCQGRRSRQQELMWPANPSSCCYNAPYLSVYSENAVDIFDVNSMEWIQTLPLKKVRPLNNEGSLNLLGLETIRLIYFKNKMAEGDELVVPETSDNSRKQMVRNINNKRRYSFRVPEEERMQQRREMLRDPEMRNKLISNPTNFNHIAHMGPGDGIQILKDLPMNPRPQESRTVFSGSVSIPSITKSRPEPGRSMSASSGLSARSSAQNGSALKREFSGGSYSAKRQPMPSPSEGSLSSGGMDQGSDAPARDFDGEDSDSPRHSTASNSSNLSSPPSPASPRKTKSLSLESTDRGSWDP
Sequence of BMP-2-inducible protein kinase (Homo sapiens) (Q9NSY1 whole entry, looked up): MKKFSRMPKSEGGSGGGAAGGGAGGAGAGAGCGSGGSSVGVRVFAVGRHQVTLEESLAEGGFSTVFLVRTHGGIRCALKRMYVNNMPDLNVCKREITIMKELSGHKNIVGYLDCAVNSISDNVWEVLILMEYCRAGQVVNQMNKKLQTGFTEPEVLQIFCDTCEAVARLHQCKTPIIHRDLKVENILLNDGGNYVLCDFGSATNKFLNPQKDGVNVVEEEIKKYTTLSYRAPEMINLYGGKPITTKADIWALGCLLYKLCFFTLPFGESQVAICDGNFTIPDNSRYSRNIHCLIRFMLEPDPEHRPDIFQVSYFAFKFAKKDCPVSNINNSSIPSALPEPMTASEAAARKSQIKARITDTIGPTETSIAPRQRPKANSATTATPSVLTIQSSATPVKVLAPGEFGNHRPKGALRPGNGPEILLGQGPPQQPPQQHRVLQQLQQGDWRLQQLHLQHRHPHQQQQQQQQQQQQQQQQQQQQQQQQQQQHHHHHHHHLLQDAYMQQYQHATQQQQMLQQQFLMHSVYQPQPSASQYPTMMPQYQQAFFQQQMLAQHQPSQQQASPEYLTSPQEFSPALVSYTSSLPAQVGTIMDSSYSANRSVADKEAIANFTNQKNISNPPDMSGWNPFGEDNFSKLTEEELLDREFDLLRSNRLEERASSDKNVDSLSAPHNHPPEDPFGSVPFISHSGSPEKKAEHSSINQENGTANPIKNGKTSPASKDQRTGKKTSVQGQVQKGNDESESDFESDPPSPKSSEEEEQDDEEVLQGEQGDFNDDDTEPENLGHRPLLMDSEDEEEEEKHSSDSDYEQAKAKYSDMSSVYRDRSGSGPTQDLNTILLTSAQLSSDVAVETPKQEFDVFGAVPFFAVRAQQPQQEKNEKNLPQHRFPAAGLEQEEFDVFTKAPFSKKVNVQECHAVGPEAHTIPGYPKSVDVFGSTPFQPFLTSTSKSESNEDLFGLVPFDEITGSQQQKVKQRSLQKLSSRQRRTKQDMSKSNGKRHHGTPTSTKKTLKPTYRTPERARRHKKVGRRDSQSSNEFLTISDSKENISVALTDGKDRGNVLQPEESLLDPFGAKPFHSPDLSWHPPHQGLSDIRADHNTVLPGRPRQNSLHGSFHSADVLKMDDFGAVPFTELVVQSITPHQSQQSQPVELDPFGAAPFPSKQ
Sequence of Mitogen-activated protein kinase 3 (P27361 whole entry): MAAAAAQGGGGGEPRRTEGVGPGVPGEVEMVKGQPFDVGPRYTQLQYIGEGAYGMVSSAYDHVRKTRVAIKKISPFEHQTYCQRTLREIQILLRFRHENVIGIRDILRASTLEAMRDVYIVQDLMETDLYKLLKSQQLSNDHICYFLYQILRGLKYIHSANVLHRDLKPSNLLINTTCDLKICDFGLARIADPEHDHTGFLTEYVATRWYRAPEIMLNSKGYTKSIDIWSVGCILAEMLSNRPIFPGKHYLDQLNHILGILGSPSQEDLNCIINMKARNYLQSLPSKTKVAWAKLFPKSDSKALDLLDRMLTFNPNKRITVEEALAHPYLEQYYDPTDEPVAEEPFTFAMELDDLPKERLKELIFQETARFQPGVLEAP
Sequence of Mitogen-activated protein kinase 8 (P45983 whole entry): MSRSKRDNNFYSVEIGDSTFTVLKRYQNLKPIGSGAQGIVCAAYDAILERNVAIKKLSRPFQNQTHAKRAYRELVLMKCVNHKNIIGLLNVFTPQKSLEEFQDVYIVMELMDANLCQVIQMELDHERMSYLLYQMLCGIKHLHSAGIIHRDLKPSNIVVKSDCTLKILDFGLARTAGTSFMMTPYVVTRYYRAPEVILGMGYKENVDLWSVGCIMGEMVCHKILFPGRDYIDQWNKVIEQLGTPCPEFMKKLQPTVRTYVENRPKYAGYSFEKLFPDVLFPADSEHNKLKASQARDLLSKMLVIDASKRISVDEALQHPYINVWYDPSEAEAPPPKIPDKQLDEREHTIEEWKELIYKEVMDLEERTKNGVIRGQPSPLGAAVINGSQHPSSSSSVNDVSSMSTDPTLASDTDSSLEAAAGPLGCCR

As to `COc1cc(Nc2nc(C)cc(-c3cnn4nc(OC)ccc34)n2)cc(C(F)(F)F)c1`, in [1], the % of control stood at 100%.

Turning to `CC(=O)c1cc(-c2ccccc2OCC2CC2)c2ncccn12`, in test [2], the % of control amounted to 103%.

In the case of `C=CC(=O)Nc1cc(-n2c(=O)ccc3cnc4ccc(-c5ccc(NS(C)(=O)=O)cc5)cc4c32)ccc1C`, the % of control was found to be 100% in [3] (at 1 µM), 96% in test [3] (at 10 µM), 76% in [4] (at 1 µM) and 39% in test [4] (at 10 µM).

Regarding `CC[C@@H]1[C@H](F)C(=O)N[C@@H]1COc1nccc2cc(C(N)=O)c(OC)cc12` [ZIMLOVISERTIB], the % of inhibition was 16% in test [5] (at 0.01 µM); 21.7% in test [5] (at 0.04 µM); 11.2% in [5] (at 0.2 µM); 11.8% in test [5] (at 1 µM); 28.8% in [5] (at 5 µM).

In test [6], `COc1cc(N(C)c2ccnc3ccc(C(F)(F)F)cc23)cc(OC)c1OC` gave a % binding of 100%.

In the case of `N#Cc1cccc(-c2c[nH]c3ncnc(N4CCOCC4)c23)c1`, the % of control in test [7] came to 87%; in [8], 62%; in test [9], 62%.

The molecule `O[C@H]1CC[C@H](Nc2ncc3nc(Nc4c(F)cc(F)cc4F)n([C@H]4CCOC4)c3n2)CC1` yielded a % of control in test [10] of 100%.
